The values that follow come from patent publication US9000162B2, “5,8-difluoro-4-(2-(4-(heteroaryloxy)-phenyl)ethylamino)quinazolines and their use as agrochemicals” (Dow AgroSciences LLC, priority 2008, dated 2015).

Format in all cases: in vivo
Experiment [1] has as its system Pseudoperonospora cubensis (PSPECU). In words: Cucumber downy mildew foliar protectant test. To be noted: 200 ppm foliar, inoculated one day after treatment, read-out: Activity against fungal diseases PSPECU. Here is the method:
The plants were inoculated with the fungus one day after treatment. ***=80-100% control; **=50-79% control; *=0-49% control. It will be understood by those in the art that the efficacy of the compounds against the foregoing fungi establishes the general utility of the compounds as fungicides. The activity of the compounds as effective fungicides was determined by applying the compounds to plants and observing control of fungal disease. […] All plants were inoculated with spores of the fungus the day after treatment, then incubated in an environment conducive to disease development. Disease severity was evaluated 4 to 25 days later, depending on the speed of disease development. The following experiments were performed in the laboratory to determine the fungicidal efficacy of the compounds of the invention. Cucumber Downy Mildew (Causal Agent Pseudoperonospora cubensis; Bayer Code […]): Cucumber plants (variety “Bush Champion' or 'Bush Pickle Hybrid') were grown from seed in a soil-less peat-based potting mixture (Metromix) until the first true leaf was 20-80% expanded. Each pot contained 1 seedling. These plants were sprayed until wet with the formulated test compound. On the following day, the leaves were inoculated with an aqueous suspension of downy mildew sporangia and the plants were kept in high humidity for one day to permit sporangia to germinate and infect the leaf. The plants were then incubated in a growth chamber until disease developed on untreated control plants. Table 1 presents the activity of typical compounds of the present invention when evaluated in these experiments. The effectiveness of the test compounds at controlling disease when sprayed on leaves was determined by assessing the severity of disease on treated plants, then converting the severity to percent control based on the level of disease on untreated, inoculated plants.

Experiment [2] relates to Puccinia recondita tritici (PUCCRT). In words: Leaf rust of wheat foliar protectant test. To be noted: 200 ppm foliar, inoculated one day after treatment, read-out: Activity against fungal diseases PUCCRT. Here is the method: (§1) The plants were inoculated with the fungus one day after treatment. ***=80-100% control; **=50-79% control; *=0-49% control. It will be understood by those in the art that the efficacy of the compounds against the foregoing fungi establishes the general utility of the compounds as fungicides. The activity of the compounds as effective fungicides was determined by applying the compounds to plants and observing control of fungal disease. […] All plants were inoculated with spores of the fungus the day after treatment, then incubated in an environment conducive to disease development. Disease severity was evaluated 4 to 25 days later, depending on the speed of disease development. The following experiments were performed in the laboratory to determine the fungicidal efficacy of the compounds of the invention. […] Each pot contained 3-8 seedlings. These plants were sprayed until wet with the formulated test compounds. On the following day, the leaves were inoculated with an aqueous spore suspension of Puccinia recondita tritici and the plants were kept in high humidity overnight to permit spores to germinate and infect the leaf. The plants were then transferred to a greenhouse until disease developed on untreated control plants. Table 1 presents the activity of typical compounds of the present invention when evaluated in these experiments. The effectiveness of the test compounds at controlling disease when sprayed on leaves was determined by assessing the severity of disease on treated plants, then converting the severity to percent control based on the level of disease on untreated, inoculated plants.

Experiment [3] has as its system Magnaporthe grisea = Pyricularia oryzae (PYRIOR). Description: whole plant or invertebrate. The settings on record: foliar, read-out: Activity against fungal diseases PYRIOR.
The subject of experiment [4] is Septoria tritici (SEPTTR). In words: Septoria blotch of wheat foliar protectant test. To be noted: Zymoseptoria tritici, read-out: Activity against fungal diseases SEPTTR; for pest or weed control at 200 ppm: 200 ppm foliar, inoculated one day after treatment; for pest or weed control at 25 ppm: foliar, Tested at 25 ppm (footnote b). Here is the method: as §1, with “3-10” for “3-8”, “compound.” for “compounds.”, “Septoria” for “Puccinia recondita”, “(one day in a dark dew chamber followed by three days in a lighted dew chamber)” for “overnight”

With `Cc1cc(CCNc2ncnc3c(F)ccc(F)c23)ccc1O` [Compound 24], the pest or weed control at 200 ppm in experiment [1], in experiment [2], in experiment [3] and in experiment [4] was 0 to 49% throughout.
Take `Cc1cc(CCNc2ncnc3c(F)ccc(F)c23)ccc1Oc1cc(C(F)(F)F)ccn1` [Compound 25]: the pest or weed control at 200 ppm in experiment [1], in experiment [2], in experiment [3] and in experiment [4] was 80 to 100% throughout.
With `Cc1c(CCNc2ncnc3c(F)ccc(F)c23)ccc(Oc2cc(C(F)(F)F)ccn2)c1C` [Compound 26], the pest or weed control at 200 ppm in experiment [1] was in the range of 80 to 100%; in experiment [2] it was 80 to 100%; in experiment [3] it was 50 to 79%; in experiment [4], 80 to 100%.
Regarding `Oc1ccc(CCNc2ncnc3c(F)cc(F)c(F)c23)cc1` [Compound 27], the pest or weed control at 200 ppm in experiment [1], in experiment [2], in experiment [3] and in experiment [4] was 0 to 49% throughout.
`COC(=O)c1cnc(Oc2ccc(CCNc3ncnc4c(F)ccc(F)c34)cc2)cc1C(F)(F)F` [Compound 28]: the pest or weed control at 200 ppm in experiment [1], in experiment [2] and in experiment [3] was 80 to 100% each time. Besides, the pest or weed control at 25 ppm in experiment [4] lay in the range of 80 to 100%.
Turning to `COc1cc(C(F)(F)F)cc(Oc2ccc(CCNc3ncnc4c(F)ccc(F)c34)cc2C)n1` [Compound 29], the pest or weed control at 200 ppm in experiment [1] lay within 80 to 100%; in experiment [2], 80 to 100%; in experiment [3], 50 to 79%; in experiment [4], 80 to 100%.
For `COc1cc(C(F)(F)F)cc(Oc2ccc(CCNc3ncnc4c(F)ccc(F)c34)c(C)c2C)n1` [Compound 30], the pest or weed control at 200 ppm lay in the range of 50 to 79% in experiment [1], 80 to 100% in experiment [2], 50 to 79% in experiment [3] and 0 to 49% in experiment [4].
`COc1ccc(CCNc2ncnc3c(F)ccc(F)c23)cc1Br` [Compound 32]: the pest or weed control at 200 ppm in experiment [1] is 80 to 100%; in experiment [2], 80 to 100%; in experiment [3], 50 to 79%; in experiment [4] it was 0 to 49%.
`COc1cc(CCNc2ncnc3c(F)cc(F)c(F)c23)ccc1Oc1cc(C(F)(F)F)ccn1` [Compound 34]: the pest or weed control at 200 ppm in experiment [1], in experiment [2], in experiment [3] and in experiment [4] was 80 to 100% in each case.
For `Cc1cc(CCNc2ncnc3c(F)ccc(F)c23)ccc1Oc1ccncc1C(F)(F)F` [Compound 37], the pest or weed control at 200 ppm in experiment [1] and in experiment [2] was 80 to 100% in each case. The pest or weed control at 3 ppm in experiment [3] is 80 to 100%. For the same molecule, the pest or weed control at 25 ppm in experiment [4] lay in the range of 50 to 79%.
In the case of `Fc1ccc(F)c2c(NCCc3ccc(Oc4cc(C(F)(F)F)ccn4)c(Br)c3)ncnc12` [Compound 39], the pest or weed control at 200 ppm in experiment [1], in experiment [2] and in experiment [3] was 80 to 100% throughout. Further, the pest or weed control at 25 ppm in experiment [4] lay within 80 to 100%.
On to `Fc1ccc(F)c2c(NCCc3cccc(Oc4cc(C(F)(F)F)ccn4)c3)ncnc12` [Compound 40], for which the pest or weed control at 200 ppm in experiment [1], in experiment [2] and in experiment [3] was 80 to 100% in each case. Further, in experiment [4], the pest or weed control at 25 ppm was in the range of 50 to 79%.
With `N#Cc1cc(CCNc2ncnc3c(F)ccc(F)c23)ccc1Oc1cc(C(F)(F)F)ccn1` [Compound 41], the pest or weed control at 200 ppm in experiment [1], in experiment [2] and in experiment [3] was 80 to 100% each time. Further, the pest or weed control at 25 ppm in experiment [4] was 50 to 79%.
As for `Fc1ccc(F)c2c(NCCc3ccc(Oc4cnccc4C(F)(F)F)cc3)ncnc12` [Compound 43], the pest or weed control at 200 ppm was 80 to 100% in experiment [1], 80 to 100% in experiment [2], 50 to 79% in experiment [3] and 80 to 100% in experiment [4].
On to `COc1cc(CCNc2ncnc3c(F)ccc(F)c23)ccc1Oc1cc(C(F)(F)F)cc(C)n1` [Compound 44], for which the pest or weed control at 200 ppm in experiment [1] is 80 to 100%; in experiment [2], 80 to 100%; in experiment [3], 0 to 49%; in experiment [4], 80 to 100%.
Turning to `COc1cc(CCNc2ncnc3c(F)ccc(F)c23)ccc1Oc1ncc(C(F)(F)F)cc1F` [Compound 45], the pest or weed control at 200 ppm is 80 to 100% in experiment [1], 80 to 100% in experiment [2], 0 to 49% in experiment [3] and 80 to 100% in experiment [4].
Consider `COc1ccc(CCNc2ncnc3c(F)ccc(F)c23)cc1F` [Compound 46], for which the pest or weed control at 200 ppm in experiment [1] is 80 to 100%; in experiment [2] it was 80 to 100%; in experiment [3], 0 to 49%; in experiment [4], 0 to 49%.
With `Oc1ccc(CCNc2ncnc3c(F)ccc(F)c23)cc1F` [Compound 47], the pest or weed control at 200 ppm in experiment [1] was 0 to 49%; in experiment [2], 0 to 49%; in experiment [3] it was 50 to 79%; in experiment [4], 0 to 49%.
With `Fc1cnc(C(F)(F)F)c(F)c1Oc1ccc(CCNc2ncnc3c(F)ccc(F)c23)cc1` [Compound 48], the pest or weed control at 200 ppm in experiment [1], in experiment [2], in experiment [3] and in experiment [4] was 80 to 100% each time.
Turning to `Fc1cc(CCNc2ncnc3c(F)ccc(F)c23)ccc1Oc1cc(C(F)(F)F)ccn1` [Compound 49], the pest or weed control at 200 ppm in experiment [1], in experiment [2], in experiment [3] and in experiment [4] was 80 to 100% throughout.
On to `COc1cc(CCNc2ncnc3c(F)ccc(F)c23)ccc1Oc1c(F)cnc(C(F)(F)F)c1F` [Compound 50], for which the pest or weed control at 200 ppm in experiment [1], in experiment [2], in experiment [3] and in experiment [4] was 80 to 100% throughout.
On to `Cc1cc(O)ccc1CCNc1ncnc2c(F)ccc(F)c12` [Compound 51], for which the pest or weed control at 200 ppm in experiment [1] was in the range of 0 to 49%; in experiment [2], 0 to 49%; in experiment [3] it was 50 to 79%; in experiment [4], 0 to 49%.
With `COc1cc(CCNc2ncnc3c(F)ccc(F)c23)ccc1Oc1ccc(C(F)(F)F)cn1` [Compound 52], the pest or weed control at 200 ppm in experiment [1], in experiment [2], in experiment [3] and in experiment [4] was 80 to 100% each time.
